In brackets after ≈: the same amount, converted by molar mass. Read-outs that look alike come from different tables or passages of the source. Where a SMILES comes first, the peptide text is derived from it. Bridges are numbered along the chain shown (N, C = ends).
What was measured:
[1] = biological target: T1, bovine trypsin (Bos taurus, UniProt P00760); conditions: BAPNA substrate, pH 8.2, 0.05 M Tris-HCl, 0.02 M CaCl2, 37 °C, double reciprocal and Dixon plot, mean and standard error of two biological replicates
T1 sequence (P00760 24-246): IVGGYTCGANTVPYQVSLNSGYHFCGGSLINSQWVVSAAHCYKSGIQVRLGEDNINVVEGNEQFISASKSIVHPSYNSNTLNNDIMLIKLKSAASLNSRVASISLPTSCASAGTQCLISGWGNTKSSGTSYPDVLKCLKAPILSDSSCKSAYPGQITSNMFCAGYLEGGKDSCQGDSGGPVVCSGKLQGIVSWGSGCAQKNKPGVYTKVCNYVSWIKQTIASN
Description: (§3) The amidase activity of trypsin and its inhibition was assayed using the chromogenic substrate BAPNA at pH 8.2 in 0.05 M Tris-HCl containing 0.02 M CaCl2 at 37 °C. The assay reaction contained 50 µL of trypsin solution (40–50 μg of trypsin in 1 mM HCl), 50 µL of water, and 125 µL of the substrate. The reaction was carried out at 37 °C for 10 min and stopped by addition of 0.25 mL of 30% acetic acid. […] The trypsin solution was incubated with an aliquot of inhibitor for 10 min at 37 °C and reaction started by the addition of 125 µL substrate and incubated at 37 °C for 10 min. […] The effect of varying substrate concentration (BAPNA) on bovine trypsin in the presence of fixed concentrations of peptides was studied. The inhibition constants (Ki) were evaluated using the double reciprocal and Dixon plot of the data[65],[66]. Data presented are averages and standard error calculated from two biological replicate experiments.

[2] = system: Micrococcus luteus ATCC4698
Description: (§1) Four Gram-positive bacteria: Listeria monocytogenes ATCC13932, Bacillus cereus ATCC11778, Staphylococcus aureus ATCC12900, and Micrococcus luteus ATCC4698 and three Gram-negative bacteria: Escherichia coli ATCC11775, Pectobacterium carotovorum MCC2112, and Salmonella typhimurium ATCC9844 were used in this study. These strains were stored at −80 °C in 25% (v/v) glycerol.
(§2) Antimicrobial assays against various bacterial cultures were done using the microdilution broth assay according to the Clinical and Laboratory Standards Institute (CLSI)[64] with some modifications. Mueller-Hinton broth was used to dilute the peptide stock and the bacterial inoculum. Inoculum was prepared from the mid-logarithmic phase culture. Each well of the microtiter plates received aliquots of 100 µL of the media containing different concentrations of peptide ranging from 0.3 to 300 µg/mL. The final concentration of bacteria in the wells was 5 × 10^5 Colony Forming Units (CFU) per mL. Ampicillin was used as positive control. For negative control, ultrapure water was used instead of peptides. Microtiter plates were incubated at 37 °C for 5–6 h with continuous shaking at 130 rpm (M. luteus cells were incubated for 7–8 h). The incubation time used for these assays was initially optimized using a 20-h incubation period. […] MIC assays were performed as three independent experiments in triplicates.

[3] = system: B. cereus; experiment: Propidium iodide (PI) uptake assay; type: cell-based, Bacillus cereus; conditions: peptides at 2X MIC, Fig. 4e; three biological replicates
Description: B. cereus and M. luteus were grown in MH broth to logarithmic phase of growth and then diluted to OD600 ~ 0.25. Serial dilutions of the antimicrobial peptides (final concentrations, 0–100 μg/mL) were added to the wells of a black-walled microplate. Hundred microliters of the bacterial suspension containing PI (final concentration, 10 μM) was added to the wells. The emitted fluorescence was measured at excitation and emission wavelengths of 585 and 620 nm, respectively, for 2 h using a multimode plate reader (Varioskan Flash, Thermo Scientific, USA). The percentage of membrane permeabilization was calculated as the percent of fluorescent intensity of peptide-treated samples with respect to fluorescence intensity of PI-loaded, peptide untreated samples. PI uptake assays were performed as three independent experiments in triplicates.

[4] = biological target: T1, bovine trypsin; experiment: biochemical; conditions: SEM
Description: as §3

[5] = system: Pectobacterium carotovorum MCC2112
Description: as §1, §2

[6] = system: Listeria monocytogenes ATCC13932
Description: as §1, §2

[7] = system: Escherichia coli ATCC11775
Description: as §1, §2

[8] = system: Salmonella typhimurium ATCC9844
Description: as §1, §2

[9] = system: Staphylococcus aureus ATCC12900
Description: as §1, §2

[10] = system: Bacillus cereus ATCC11778
Description: as §1, §2

[11] = system: human red blood cells (hRBCs); conditions: peptide 0 to 200 μg/mL, 4% hRBCs in PBS, 1 h, 37 °C, absorbance 414 nm, Triton X-100 = 100%; three biological replicates
Description: The hemolytic activity of the peptide was evaluated using human red blood cells (hRBCs). Erythrocytes were separated from 1 mL of blood by centrifugation at 1500 rpm for 10 min. Collected hRBCs were washed three times with PBS, diluted to 4% (v/v) in PBS. Hundred microliters of the hRBCs having peptides ranging from 4 to 200 µg/mL as added into 96-well microtiter plate. The plates were incubated for 1 h at 37 °C without agitation and centrifuged at 1500 rpm for 5 min. Aliquots (100 μL) of the supernatant were transferred to 96-well plates and absorbance was measured at 414 nm. PBS and 1% Triton X-100 were used as control for 0% and 100% hemolysis, respectively. Percentage of hemolysis was calculated as (AT − AC)/(AX − AC) × 100; where AT is the experimental absorbance of treated supernatants, AC is the control absorbance of PBS-treated cell supernatant, and AX is the absorbance of 0.1% (v/v) Triton X-100 lysed cells. Data presented are averages and standard error from three biological replicate experiments.

[12] = system: ARPE-19 cells; conditions: 16 h, WST-1, Fig. 10a ARPE-19
Description: Cytotoxicity against adult retinal pigmented epithelial (ARPE-19, ATCC CRL2302) cells was measured using WST assay. ARPE-19 cells growing in log phase were seeded into 96-well cell-culture plates at 4 × 10^4 the cells were incubated at 37 °C for 24 h under 5% CO2. Peptide is added with final concentrations of 4–200 µg/mL in Dulbecco’s modified Eagle medium (DMEM/F12). Nutrient mixture media for the treatment group, whereas for the negative control group, media alone was added. The cells were incubated for 16 h at 37 °C under 5% CO2. Ten microliters of WST-1 reagent was added into each well. Plate was incubated at 37 °C for 2 h. Color intensity was measured at 450 nm. Cytotoxicity data presented are averages and standard error from three biological replicate experiments.

[13] = system: B. cereus
Description: as §2
To determine the stability of HSEP3 at higher temperatures, 20 μL of HSEP3 (4 mg/mL) and 20 μL of Nisin in a 0.5 mL tube were autoclaved (for moist heat) at 121 °C for 20 min or heated at 95 °C for 30 min (for dry heat) and cooled to room temperature. Mixture was then used to test the antibacterial activity as previously described. Experiments were repeated in LB media to study the effect of complex media on antibacterial activity. All the experiments were repeated at least two times.

[14] = system: B. cereus spores; type: cell-based, Bacillus cereus; conditions: spore suspension, resazurin; repeated at least twice
Description: B. cereus spores were used to test the effect of peptides on spore germination. Spores were prepared by inoculating 3 mL MH media with B. cereus cells and incubating at 30 °C at 180 rpm for 12 h. 2.5 mL of the culture was inoculated into a 250 mL MH media and incubated at 30 °C for 72 h. Furthermore, culture was temperature-treated at 80 °C for 30 min to eliminate the vegetative cells. Spore suspension was stored at 4 °C until further use. Two microliters of spore suspension was used to test the effect of HSEP3 and Nisin on spore germination using resazurin. All experiments were repeated at least twice.

[15] = microdilution broth, MH broth, 5 × 10^5 CFU/mL, 37 °C, 5–6 h, resazurin
[16] = microdilution broth (CLSI, modified), Mueller-Hinton broth, 5 × 10^5 CFU/mL, 37 °C, 7–8 h, resazurin colour change, three independent experiments in triplicates

| SMILES | Ki (M) against bovine trypsin [1] | MIC (µg/mL) M. luteus ([2]; ATCC4698) | Ki [4] | MIC Pectobacterium carotovorum [5, 15] | MIC Listeria monocytogenes [6, 15] | MIC Escherichia coli [7, 15] | MIC Salmonella typhimurium [8, 15] | MIC Staphylococcus aureus [9, 15] | MIC (µg/mL) M. luteus [2, 16] | MIC Bacillus cereus [10, 15] | hemolytic activity [11] | further results |
| --- | --- | --- | --- | --- | --- | --- | --- | --- | --- | --- | --- | --- |
| CC[C@H](C)[C@H](NC(=O)[C@@H](NC(=O)[C@@H](N)CO)C(C)C)C(=O)N[C@@H](Cc1ccccc1)C(=O)NCC(=O)N[C@H]1CSSC[C@@H](C(=O)N[C@@H](Cc2ccccc2)C(=O)N[C@H](C(=O)NCC(=O)N[C@@H](Cc2ccccc2)C(=O)N[C@@H](CCCCN)C(=O)O)C(C)C)NC(=O)[C@H]([C@@H](C)CC)NC(=O)[C@@H]2CCCN2C(=O)[C@@H]2CCCN2C(=O)[C@H]([C@@H](C)CC)NC(=O)[C@H](CO)NC(=O)CNC(=O)[C@H]([C@@H](C)O)NC1=O [HSEP2-K8G] (H-SVIFGCTGSIPPICFVGFK-OH; disulfide 6-14) | failed to show any trypsin inhibition | 37.5 µg/mL (≈ 19 µM) |  |  |  |  |  |  |  |  |  |  |
| CC[C@H](C)[C@H](NC(=O)[C@@H](NC(=O)[C@@H](N)CO)C(C)C)C(=O)N[C@@H](Cc1ccccc1)C(=O)NCC(=O)N[C@H]1CSSC[C@@H](C(=O)N[C@@H](Cc2ccccc2)C(=O)N[C@H](C(=O)NCC(=O)N[C@@H](Cc2ccccc2)C(=O)N[C@@H](CCCCN)C(=O)O)C(C)C)NC(=O)[C@H]([C@@H](C)CC)NC(=O)[C@@H]2CCCN2C(=O)[C@@H]2CCCN2C(=O)[C@H]([C@@H](C)CC)NC(=O)[C@H](CO)NC(=O)[C@H]([C@@H](C)O)NC1=O [HSEP2-∆K8] (H-SVIFGCTSIPPICFVGFK-OH; disulfide 6-13; N-terminus and C-terminus assumed) |  |  |  |  |  |  |  |  |  |  |  | PI uptake fluorescence intensity of treated bacterial cells [3]: minimal fluorescence intensity; Ki (M) against bovine trypsin ([1]; listed as HSEP2-ΔK8): failed to show any trypsin inhibition; MIC (µg/mL) M. luteus ([2]; microdilution broth (CLSI, modified), Mueller-Hinton broth, 5 × 10^5 CFU/mL, 37 °C, 7–8 h, resazurin colour change, three independent experiments in triplicates, listed as HSEP2-ΔK8): did not show any antibacterial activity |
| CC[C@H](C)[C@H](NC(=O)[C@@H](NC(=O)[C@@H](N)CO)C(C)C)C(=O)N[C@@H](Cc1ccccc1)C(=O)NCC(=O)N[C@H]1CSSC[C@@H](C(=O)N[C@@H](Cc2ccccc2)C(=O)N[C@H](C(=O)NCC(=O)N[C@@H](Cc2ccccc2)C(=O)N[C@@H](CCCCN)C(=O)O)C(C)C)NC(=O)[C@H]([C@@H](C)CC)NC(=O)[C@@H]2CCCN2C(=O)[C@@H]2CCCN2C(=O)[C@H]([C@@H](C)CC)NC(=O)[C@H](CO)NC(=O)[C@H](CCCCN)NC(=O)[C@H]([C@@H](C)O)NC1=O [HSEP2] (H-SVIFGCTKSIPPICFVGFK-OH; disulfide 6-14) |  |  | 580 nM | 150 µg/mL (≈ 73.5 µM) | >150 µg/mL | 150 µg/mL (≈ 73.5 µM) | >150 µg/mL | >150 µg/mL | 6.25 µg/mL (≈ 3.06 µM) | 75 µg/mL (≈ 36.7 µM) | < 5% | cell viability ([12]; peptide concentration 200 µg/mL): > 70%; cell viability ([12]; peptide concentration range 0–160 µg/mL, three biological replicates): > 80% |
| CC[C@H](C)[C@H](NC(=O)[C@@H](NC(=O)[C@H](CO)NC(=O)[C@@H](N)CCCNC(=N)N)C(C)C)C(=O)N[C@@H](Cc1ccccc1)C(=O)NCC(=O)N[C@H]1CSSC[C@@H](C(=O)N[C@@H](Cc2ccccc2)C(=O)N[C@H](C(=O)NCC(=O)N[C@@H](Cc2ccccc2)C(=O)N[C@@H](CCCCN)C(=O)O)C(C)C)NC(=O)[C@H](Cc2ccccc2)NC(=O)[C@H](CCCNC(=N)N)NC(=O)[C@H](CCCNC(=N)N)NC(=O)[C@H](Cc2ccc(O)cc2)NC1=O [HSEP3-∆TL,CL^+] (H-RSVIFGCYRRFCFVGFK-OH; disulfide 7-12) | did not show any anti-trypsin activity | 3.125 µg/mL (≈ 1.5 µM) |  |  |  |  |  |  |  |  |  | MIC Pectobacterium carotovorum [5]: >150 µg/mL; MIC Listeria monocytogenes ([6]; ATCC13932): >150 µg/mL; MIC Escherichia coli ([7]; ATCC11775): >150 µg/mL; MIC Salmonella typhimurium ([8]; ATCC9844): >150 µg/mL; MIC Staphylococcus aureus ([9]; ATCC12900): >150 µg/mL; MIC Bacillus cereus ([10]; ATCC11778): >150 µg/mL |
| CC[C@H](C)[C@H](NC(=O)[C@@H](NC(=O)[C@H](CO)NC(=O)[C@@H](N)CCCNC(=N)N)C(C)C)C(=O)N[C@@H](Cc1ccccc1)C(=O)NCC(=O)N[C@H]1CSSC[C@@H](C(=O)N[C@@H](Cc2ccccc2)C(=O)N[C@H](C(=O)NCC(=O)N[C@@H](Cc2ccccc2)C(=O)N[C@@H](CCCCN)C(=O)O)C(C)C)NC(=O)[C@H]([C@@H](C)CC)NC(=O)[C@@H]2CCCN2C(=O)[C@@H]2CCCN2C(=O)[C@H]([C@@H](C)CC)NC(=O)[C@H](CO)NC(=O)[C@H](CCCCN)NC(=O)[C@H]([C@@H](C)O)NC1=O [HSEP3] (H-RSVIFGCTKSIPPICFVGFK-OH; disulfide 7-15) |  |  | 200 nM | 50 µg/mL (≈ 22.8 µM) | 50 µg/mL (≈ 22.8 µM) | 150 µg/mL (≈ 68.3 µM) | 85 µg/mL (≈ 38.7 µM) | 150 µg/mL (≈ 68.3 µM) | 1.25 µg/mL (≈ 0.569 µM) | 12.5 µg/mL (≈ 5.69 µM) | < 5% | Effect of steam heat on antibacterial activity (in complex media), MIC ([13]; autoclaved at 121 °C for 20 min, LB media): 50 µg/mL; Effect of steam heat on antibacterial activity (in MH media), MIC ([13]; autoclaved at 121 °C for 20 min, MH media): 12.5 µg/mL; Effect of dry heat on antibacterial activity, MIC ([13]; heated at 95 °C for 30 min): 12.5 µg/mL; Inhibition of B. cereus spore germination (MIC) [14]: 12.5 µg/mL |
